# From ChEMBL document CHEMBL1133008, “AMP deaminase inhibitors. 2. Initial discovery of a non-nucleotide transition-state inhibitor series” (J Med Chem, 2000)
# Target: T1, Adenosine deaminase (Bos taurus, UniProt P56658)
# T1 sequence (P56658 whole entry): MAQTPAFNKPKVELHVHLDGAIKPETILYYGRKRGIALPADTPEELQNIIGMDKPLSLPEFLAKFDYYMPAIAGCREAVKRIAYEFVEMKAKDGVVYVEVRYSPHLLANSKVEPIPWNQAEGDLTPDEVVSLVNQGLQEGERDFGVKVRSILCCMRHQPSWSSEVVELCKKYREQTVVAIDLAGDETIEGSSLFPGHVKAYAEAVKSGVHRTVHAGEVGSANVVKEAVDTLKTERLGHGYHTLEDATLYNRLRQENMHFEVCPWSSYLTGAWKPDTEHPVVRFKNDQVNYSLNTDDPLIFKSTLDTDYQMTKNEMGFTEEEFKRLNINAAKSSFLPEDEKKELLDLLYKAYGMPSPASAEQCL
# Experiment: Evaluated for the inhibition of calf intestinal Adenosine deaminase (ADA)
row,Ki [µM],Structure (SMILES)
1,> 7.5,O=C(O)C(CCCCn1cnc2c1NC=NCC2O)(c1ccccc1)c1ccccc1 (centres undefined)
2,3.6,OCCCCCCn1cnc2c1N=CNCC2O (centres undefined)
3,3,CCOC(=O)CCCCCn1cnc2c1NC=NCC2O (centres undefined)
4,> 7.5,CCOC(=O)C(CCCCn1cnc2c1NC=NCC2O)c1ccccc1 (centres undefined)
5,> 7.5,O=C(O)C(CCCCn1cnc2c1N=CNCC2O)c1ccccc1 (centres undefined)
6,> 7.5,OCCCn1cnc2c1N=CNCC2O (centres undefined)
7,> 20,CCCn1cnc2c1NC=NCC2O (centres undefined)
8,> 7.5,O=C(O)C(CCCCn1cnc2c1NC=NCC2O)Cc1ccc(Br)cc1 (centres undefined)
9,> 7.5,CCOC(=O)C(CCCCn1cnc2c1NC=NCC2O)Cc1cccc(Br)c1 (centres undefined)
10,17,CCCCn1cnc2c1NC=NCC2O (centres undefined)
11,> 500,O=C(O)CCCOCn1cnc2c1NC=NCC2O (centres undefined)
12,> 7.5,CC(C)(CCCCn1cnc2c1NC=NCC2O)C(=O)O (centres undefined)
13,> 7.5,N#CCCCn1cnc2c1N=CNCC2O (centres undefined)
14,28,CCn1cnc2c1NC=NCC2O (centres undefined)
15,4.7,OCCCCCn1cnc2c1NC=NCC2O (centres undefined)
16,> 7.5,O=P(O)(O)CCCCCCn1cnc2c1N=CNCC2O (centres undefined)
17,> 7.5,CCOC(=O)C(CCCCn1cnc2c1NC=NCC2O)c1cccc(Br)c1 (centres undefined)
18,14,N#CCCCCn1cnc2c1N=CNCC2O (centres undefined)
19,> 500,O=P(O)(O)CCCCCn1cnc2c1NC=NCC2O (centres undefined)
20,> 1000,O=C(O)C(CCCCn1cnc2c1NC=NCC2O)Cc1ccccc1 (centres undefined)
21,> 7.5,O=C(O)C(CCCCn1cnc2c1N=CNCC2O)Cc1ccccc1Br (centres undefined)

row,Ki [µM],Structure (SMILES)
1,> 7.5,OC1CN=CNc2c1ncn2CCCCCc1nnn[nH]1 (centres undefined)
2,> 7.5,O=C(O)CCCCn1cnc2c1NC=NCC2O (centres undefined)
3,> 500,COP(=O)(O)CCCCCCn1cnc2c1NC=NCC2O (centres undefined)
4,> 7.5,OCCn1cnc2c1NC=NCC2O (centres undefined)
5,1,N#CCCCCCCn1cnc2c1NC=NCC2O (centres undefined)
6,5.9,NC(=O)CCCCCn1cnc2c1NC=NCC2O (centres undefined)
7,280,O=C(O)CCCCCn1cnc2c1N=CNCC2O (centres undefined)
8,250,O=C(O)CCCCCCn1cnc2c1N=CNCC2O (centres undefined)
9,> 7.5,O=C(O)C(CCCCn1cnc2c1NC=NCC2O)Cc1ccc(Cl)cc1 (centres undefined)
10,3.5,COC(=O)CCCCn1cnc2c1N=CNCC2O (centres undefined)
11,6.3,OCCCCn1cnc2c1N=CNCC2O (centres undefined)
12,6,OC1CN=CNc2c1ncn2Cc1ccccc1 (centres undefined)
13,> 7.5,CCOC(=O)C(C)(CCCCn1cnc2c1NC=NCC2O)Cc1cccc(Br)c1 (centres undefined)
14,> 7.5,O=C(O)C1(CCCCn2cnc3c2N=CNCC3O)Cc2ccccc2C1 (centres undefined)
15,> 7.5,O=C(O)C(CCCCn1cnc2c1N=CNCC2O)c1cccc(Br)c1 (centres undefined)
16,> 7.5,O=C(O)C(CCCCn1cnc2c1NC=NCC2O)Cc1cccc(Br)c1 (centres undefined)
17,> 7.5,O=C(O)CCCCCCCn1cnc2c1NC=NCC2O (centres undefined)
18,120,CC(C)CC(CCCCn1cnc2c1NC=NCC2O)(CC(C)C)C(=O)O (centres undefined)
19,> 7.5,O=C(O)C(CCCCn1cnc2c1N=CNCC2O)Cc1cccc(Cl)c1 (centres undefined)
20,> 7.5,CC(CCCCn1cnc2c1N=CNCC2O)(Cc1cccc(Br)c1)C(=O)O (stereo in doubt; 7v)
21,> 7.5,CC(CCCCn1cnc2c1N=CNCC2O)(Cc1cccc(Br)c1)C(=O)O (stereo in doubt; 7w)

row,Structure (SMILES),Ki [µM]
1,CCCCCCCCn1cnc2c1N=CNCC2O (centres undefined),0.45
2,COC(=O)CCCCCCCn1cnc2c1N=CNCC2O (centres undefined),0.95
